According to patent US9309222B2, “Phenyl linked quinolinyl modulators of RORγt” (Janssen Pharmaceutica NV, priority 2012, dated 2016):
Structures can show the parent of a compound that is named as a salt.

Tests used:
[1] = molecular target: T1, human RORγt ligand binding domain (RORγt LBD) (Homo sapiens, UniProt P51449); assay: RORγt ThermoFluor assay (thermal shift, ligand binding affinity); conditions: estimated from concentration response of thermal shift
T1 construct: His-tag (N); TurboTEV protease cleavage site (ENLYFQG) (N); made in house; host or cells: E. coli (pHIS1, modified pET vector)
T1 sequence (P51449 with tags, fused parts or gaps): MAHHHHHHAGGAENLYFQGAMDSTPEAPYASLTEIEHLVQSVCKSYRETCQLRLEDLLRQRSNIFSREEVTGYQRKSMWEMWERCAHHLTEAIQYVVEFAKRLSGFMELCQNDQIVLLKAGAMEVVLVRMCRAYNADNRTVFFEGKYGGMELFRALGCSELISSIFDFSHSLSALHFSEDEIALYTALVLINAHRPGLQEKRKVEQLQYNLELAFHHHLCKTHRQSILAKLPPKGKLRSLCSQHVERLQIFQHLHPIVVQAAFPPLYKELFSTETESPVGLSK
Procedure, shortened: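 Thermal shift of 0.065 mg/mL RORγt with 60 μM 1,8-ANS in 100 mM Hepes pH 7.0, 10 mM NaCl, 2.5 mM GSH, 0.002% Tween-20. Compounds in 1:2 series from 10 mM DMSO stock. Dye fluorescence (500 nm emission) tracked versus temperature; ΔTm used to derive KD.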

human RORγt LBD = molecular target: T2, human RORγt LBD (Homo sapiens, UniProt P51449); assay: RORγt reporter assay (GAL4-RORγt LBD luciferase in HEK293T cells); assay type: cell-based; conditions: for IC50 / RORγt reporter Assay, % inhibition @ 6 μM: HEK293T cells; for IC50: 24 hours compound treatment; for inhibition at 6 µM: HEK-293T, read-out: RORγt reporter Assay, % inhibition @ 6 μM, HEK293T cells, 6 μM compound; for RORγt reporter Assay, % inhibition @ 6 μM: 6 μM compound
T2 construct: expressed in transfected cells
T2 sequence (P51449 258-518): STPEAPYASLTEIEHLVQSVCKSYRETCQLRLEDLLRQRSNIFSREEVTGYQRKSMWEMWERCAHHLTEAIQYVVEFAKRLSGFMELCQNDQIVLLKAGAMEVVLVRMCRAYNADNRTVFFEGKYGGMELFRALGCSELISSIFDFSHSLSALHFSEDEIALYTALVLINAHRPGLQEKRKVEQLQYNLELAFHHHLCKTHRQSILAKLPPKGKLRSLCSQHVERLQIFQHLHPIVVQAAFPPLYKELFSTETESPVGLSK
Procedure, shortened: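 HEK293T cells transiently co-transfected with pBIND (GAL4 DBD fused to wild-type human RORγt LBD, plus SV40-driven renilla luciferase) and pGL4.31 GAL4-responsive firefly luciferase reporter. Plated in phenol-red-free DMEM with 5% lipid-reduced FCS and treated with compound for 24 h. Firefly/renilla luminescence ratio plotted against compound concentration.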

[2] = tested on: IL-17 production by CD4 T cells; assay: Human Th17 assay (IL-17 production by CD4 T cells under Th17 differentiation conditions); assay type: cell-based; conditions: IL-17 in supernatant after 3 days
Procedure, shortened: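 Primary CD4+ T cells from healthy-donor PBMC, preincubated 1 h with titrated compound (0.2% DMSO), then activated with anti-CD3/CD28 beads plus anti-IL4, anti-IFNγ, IL1β, IL23, IL6, TGFβ and IL2.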

| Compound | Kd [1] [nM] | IC50 (human RORγt LBD) [nM] | inhibition at 6 µM (human RORγt LBD) [%] | IC50 ([2]; Homo sapiens, CD4+ T, 72 h) [nM] | IC50 [2] [nM] | RORγt reporter Assay, % inhibition @ 6 μM (human RORγt LBD) [%] |
| --- | --- | --- | --- | --- | --- | --- |
| CC(C)Oc1nc2ccc(C(O)(c3cccnc3)c3cccc(Cl)c3)cc2c(Cl)c1-c1ccccc1 (stereo not shown) [Example 84, [4-Chloro-2-(1-methylethoxy)-3-phenylquinolin-6-yl](3-chlorophenyl)pyridin-3-ylmethanol•TFA] | 1400 | 890 | 73 | 1300 |  |  |
| COc1cccc(C(O)(c2ccc(C)nc2)c2ccc3nc(Cl)c(-c4ccccc4)c(Cl)c3c2)c1 (stereo not shown) [Example 69, (2,4-Dichloro-3-phenylquinolin-6-yl)(3-methoxyphenyl)(6-methylpyridin-3-yl)methanol•TFA] | 300 | 150 | 99 | 610 |  |  |
| Cc1ccc(C(O)(c2cccc(F)c2)c2ccc3nc(Cl)c(-c4ccccc4)c(Cl)c3c2)cn1 (stereo not shown) [Example 71, (2,4-Dichloro-3-phenylquinolin-6-yl)(3-fluorophenyl)(6-methylpyridin-3-yl)methanol•TFA] | 310 | 82 | 94 | 690 |  |  |
| Cc1ccc(C(O)(c2cccc(Cl)c2)c2ccc3nc(Cl)c(-c4ccccc4)c(Cl)c3c2)cn1 (stereo not shown) [Example 70, (3-Chlorophenyl)(2,4-dichloro-3-phenylquinolin-6-yl)(6-methylpyridin-3-yl)methanol•TFA] | 770 | 47 | 95 | 630 |  |  |
| CC(=O)N1CCC(C(O)(c2ccccc2)c2ccc3nc(C(F)(F)F)c(-c4ccccc4)c(C(F)(F)F)c3c2)CC1 (single isomer, unassigned) [Example 169b, 1-(4-(Hydroxy(phenyl)(3-phenyl-2,4-bis(trifluoromethyl)quinolin-6-yl)methyl)piperidin-1-yl)ethanone] | 3 | 3.8 | 94 |  | 27 |  |
| Cn1cncc1C(O)(c1ccc2nc(Cl)c(-c3ccccc3)c(Cl)c2c1)c1cnccn1 (stereo not shown) [Example 122, (2,4-Dichloro-3-phenylquinolin-6-yl)(1-methyl-1H-imidazol-5-yl)(pyrazin-2-yl)methanol] | 250 | 470 | 91 | 500 |  |  |
| OC(c1ccc(Cl)cc1)(c1cncnc1)c1ccc2nc(Cl)c(-c3ccccc3)c(Cl)c2c1 (stereo not shown) [Example 124, (4-Chlorophenyl)(2,4-dichloro-3-phenylquinolin-6-yl)(pyrimidin-5-yl)methanol] | 120 | 220 | 100 | 920 |  |  |
| COc1cccc(C(O)(c2cccnc2)c2ccc3nc(Cl)c(-c4ccccc4)c(Cl)c3c2)c1 (stereo not shown) [Example 54, (2,4-Dichloro-3-phenylquinolin-6-yl)(3-methoxyphenyl)pyridin-3-ylmethanol] | 39 | 150 | 97 | 360 |  |  |
| Cn1cncc1C(O)(c1cccnc1)c1cc(F)c2nc(Cl)c(-c3ccccc3)c(Cl)c2c1 (stereo not shown) [Example 154, (2,4-Dichloro-8-fluoro-3-phenylquinolin-6-yl)(1-methyl-1H-imidazol-5-yl)(pyridin-3-yl)methanol•TFA] | 120 | 970 | 90 | 1900 |  |  |
| [O-][n+]1cccc(C(O)(c2cccc(Cl)c2)c2ccc3nc(C(F)(F)F)c(-c4ccccc4)c(C(F)(F)F)c3c2)c1 (stereo not shown) [Example 166, 3-((3-Chlorophenyl)(hydroxy)(3-phenyl-2,4-bis(trifluoromethyl)quinolin-6-yl)methyl)pyridine 1-oxide•TFA] | 36 | 180 | 103 | 150 |  |  |
| Cc1ncc(C(O)(c2ccc(Cl)cc2)c2ccc3nc(C#N)c(-c4ccccc4)c(Cl)c3c2)n1C (stereo not shown) [Example 139, 4-Chloro-6-((4-chlorophenyl)(1,2-dimethyl-1H-imidazol-5-yl)(hydroxy)methyl)-3-phenylquinoline-2-carbonitrile•TFA] | 61 | 310 | 102 | 350 |  |  |
| COc1nc2c(C)cc(C(O)(c3ccc(C(F)(F)F)nc3)c3cncn3C)cc2c(Cl)c1-c1ccc(OC(F)(F)F)cc1 (single isomer, unassigned) [Example 183b, (4-Chloro-2-methoxy-8-methyl-3-(4-(trifluoromethoxy)phenyl)quinolin-6-yl)(1-methyl-1H-imidazol-5-yl)(6-(trifluoromethyl)pyridin-3-yl)methanol] | 3.7 | > 6000 |  | 1200 |  | 34 |
| CCCCN(C)c1nc2ccc(C(O)(c3ccncc3)c3cncn3C)cc2c(Cl)c1-c1ccccc1 (stereo not shown) [Example 76, {2-[Butyl(methyl)amino]-4-chloro-3-phenylquinolin-6-yl}(1-methyl-1H-imidazol-5-yl)pyridin-4-ylmethanol•TFA] | 2.3 | 4.9 | 100 | 40 |  |  |

More lines, in order of falling Kd [1], values ahead:

| Kd [1] [nM] | IC50 (human RORγt LBD) [nM] | inhibition at 6 µM (human RORγt LBD) [%] | IC50 ([2]; Homo sapiens, CD4+ T, 72 h) [nM] | IC50 [2] [nM] | RORγt reporter Assay, % inhibition @ 6 μM (human RORγt LBD) [%] | Compound |
| --- | --- | --- | --- | --- | --- | --- |
| 2000 | 490 | 79 | > 6000 |  |  | Cc1ccc(C(O)(c2cc(C)c3nc(Cl)c(-c4ccccc4)c(Cl)c3c2)c2sccc2C)cn1 (stereo not shown) [Example 158, (2,4-Dichloro-8-methyl-3-phenylquinolin-6-yl)(6-methylpyridin-3-yl)(3-methylthiophen-2-yl)methanol] |
| 180 | 260 | 95 | 2800 |  |  | Oc1ccc(C(O)(c2cccnc2)c2ccc3nc(Cl)c(-c4ccccc4)c(Cl)c3c2)cc1 (stereo not shown) [Example 29, 4-[(2,4-Dichloro-3-phenylquinolin-6-yl)(hydroxy)pyridin-3-ylmethyl]phenol•HCl] |
| 75 | 220 | 104 | 440 |  |  | OC(c1ccc(F)cc1)(c1cccnc1)c1ccc2nc(Cl)c(-c3ccccc3)c(Cl)c2c1 (stereo not shown) [Example 22, (2,4-Dichloro-3-phenylquinolin-6-yl)(4-fluorophenyl)pyridin-3-ylmethanol] |
| 65 | 59 | 101 | 39 |  |  | COc1c(-c2ccccc2)c(N(C)C)nc2ccc(C(O)(c3ccncc3)c3cncn3C)cc12 (stereo not shown) [Example 107, [2-(Dimethylamino)-4-methoxy-3-phenylquinolin-6-yl](1-methyl-1H-imidazol-5-yl)pyridin-4-ylmethanol•TFA] |
| 55 | 25 | 89 | 120 |  |  | COc1nc2ccc(C(O)(c3cccnc3)c3cccc(Cl)c3)cc2c(Cl)c1-c1ccccc1 (stereo not shown) [Example 80, (4-Chloro-2-methoxy-3-phenylquinolin-6-yl)(3-chlorophenyl)pyridin-3-ylmethanol•TFA] |
| 52 | 100 |  |  | 110 | 96 | CC(=O)N1CCC(C(O)(c2ccccc2)c2ccc3nc(C(F)(F)F)c(-c4ccccc4)c(C(F)(F)F)c3c2)CC1 (single isomer, unassigned) [Example 169c, 1-(4-(Hydroxy(phenyl)(3-phenyl-2,4-bis(trifluoromethyl)quinolin-6-yl)methyl)piperidin-1-yl)ethanone] |
| 18 | 360 | 88 | 1200 |  |  | Cn1cncc1C(O)(c1ccncc1)c1ccc2nc(Cl)c(-c3ccccc3)c(N3CCC(O)CC3)c2c1 (stereo not shown) [Example 73, 1-{2-Chloro-6-[hydroxy(1-methyl-1H-imidazol-5-yl)pyridin-4-ylmethyl]-3-phenylquinolin-4-yl}piperidin-4-ol•TFA] |
| 4.2 | 35 | 98 | 96 |  |  | OC(c1ccccc1)(c1cccnc1)c1ccc2nc(C(F)(F)F)c(-c3ccccc3)c(C(F)(F)F)c2c1 (stereo not shown) [Example 170, Phenyl(3-phenyl-2,4-bis(trifluoromethyl)quinolin-6-yl)(pyridin-3-yl)methanol] |
| 0.11 | 5.3 | 105 | ~2 |  |  | Cc1cc(C(O)(c2ccc3nc(Cl)c(-c4ccccc4)c(Cl)c3c2)c2cncn2C)cc(Cl)n1 (stereo not shown) [Example 87, (2-Chloro-6-methylpyridin-4-yl)(2,4-dichloro-3-phenylquinolin-6-yl)(1-methyl-1H-imidazol-5-yl)methanol•TFA] |
